According to US10139394B2, “Method for controlling cancer metastasis or cancer cell migration by modulating the cellular level of lysyl tRNA synthetase” (Medicinal Bioconvergence Research Center, priority 2008, dated 2018):

Assays:
67LR = 67LR level in membrane and cytoplasm of A549 cells (Western blotting, flow cytometry); assay type: cell-based; details: membrane fraction, FIG. 13
Experimental: In FIG. 13, A549 cells were transfected with si-control or si-KRS and incubated in the absence and presence of laminin. The cells were then separated to cytoplasm and membrane fractions, and the levels of 67LR and KRS in each fraction were determined by Western blotting. Cadherin (cad) and hsp90 were used as the markers for plasma membrane and cytoplasm, respectively. In FIG. 14, the membrane-bound 67LR level in A549 cells was monitored by flow cytometry using anti-LR antibody (MLuC5). The cells were transfected with empty vector or KRS plasmid and incubated for 24 h (upper). […] In FIG. 15, A549 cells transfected with EV or KRS was selected with G418 for a week and cellular distribution of 67LR was determined by immunofluorescence staining with anti-LR antibody (MLuC5). […] In FIG. 16, A549 cells were treated with cycloheximide to inhibit de novo protein synthesis and the effect of KRS levels on 67LR level in membrane and cytoplasm was determined by Western blotting. In FIG. 17, the importance of KRS for cellular stability of 67LR was determined by pulse-chase experiment. […]
To address cell cycle, the cultivated cells were transfected or treated with the indicated vector or chemicals, fixed with 70% ethanol for 1 hr at 4° C. and washed with ice-cold PBS two times. […] For each sample, 20,000 cells were analyzed using Cell Quest Pro software. […]

MMP-2 = MMP-2 zymography; assay type: cell-based; details: A549 cells; laminin 10 μg/ml 24 hr; FIG. 19
Experimental: In FIG. 18, A549 cells were transfected with the indicated plasmids, incubated in the absence and presence of laminin and their effect on cell migration was determined by measuring the migrated cells in transwell chamber as described. The numbers of the cells passed through the membrane were counted and shown in each panel. The experiments were performed three times. In FIG. 19, the cells treated as above were used to determine MMP-2 activity and level by zymography and Western blotting, respectively. In FIG. 20, Breast carcinoma 4T-1 cells were transfected with the indicated siRNA and subcutaneously injected to the back of Balb/C mice. After 21 days, mouse lungs were isolated and tumor nodules over 1 mm in diameter were counted. In FIG. 21, two different 4T-1 cells stably expressing exogenously introduced KRS (KRS-1 and -2) were also inoculated as above and the tumor nodules were counted 30 days after injection. 4T-1 cells with empty vector were used as control. In FIG. 22, expression levels of KRS and 67LR in lung (upper) and breast (lower) cancer tissues were compared by immunohistochemical staining with their respective antibodies. 39 lung and 40 breast cancer tissues were subjected to immunohistochemical staining with anti-KRS and anti-67LR antibodies and their expression levels were compared with those in normal tissues (9 samples for each tissue). […]

laminin: laminin (Engelbreth-Holm-Swarm murine sarcoma) from Sigma
67LR level (67LR): increased | MMP-2 activity (MMP-2): enhanced
